Source: patent publication US20260274832A1, “COMPOUNDS AND THEIR USE IN TREATING CANCER” (ASTRAZENECA AB, priority 2023, published 2026)

How the values were obtained:
[1] = biological target: T1, AR (AR-full length) in LNCaP cells (Homo sapiens, UniProt P10275, T878A); experiment: LNCaP Androgen Receptor Imaging Assay (immunofluorescence of endogenous nuclear AR); format: cell-based; conditions: 24 h incubation; for DC50: concentration giving 50% of maximum degradation of AR per curve fit, single experiment or average of two or more; for Dmax: LNCaP, maximum degradation observed, normalized as % of positive control (prior art AR PROTAC at 3 μM)
T1 construct: the prostate cancer cell line LNCaP (expressing AR-full length); endogenous in cells; host or cells: LNCaP
How it was run: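 Endogenous nuclear AR level was imaged by immunofluorescence after 24 h compound exposure (12-point dose response, 0.3% DMSO, 37° C./5% CO2) in LNCaP cells. Data were expressed as % of a 3 μM prior-art AR PROTAC control and fitted (bell fit where a hook appeared) to give DC50 and maximum degradation Dmax.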

[2] = biological target: T2, AR (L702H) in LNCaP cells (Homo sapiens, UniProt P10275, L702H/T878A); experiment: LNCaP Androgen Receptor L702H Imaging Assay (LNCaP cells engineered by CRISPR/Cas9); format: cell-based; conditions: LNCaP cells with AR L702H mutation, 24 h incubation; for DC50: concentration giving 50% of maximum degradation of AR (L702H) per curve fit; for Dmax: LNCaP, maximum degradation observed, normalized as % of positive control
T2 construct: engineered to introduce the mutation L702H into the AR gene using CRISPR/Cas9; endogenous in cells; host or cells: LNCaP cells edited by CRISPR/Cas9 at the AR gene
How it was run: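 AR (L702H) degradation, expressed as DC50 and Dmax from curve fits normalized to a positive degrader control, was measured by high-content imaging of anti-AR immunofluorescence. The engineered LNCaP line was dosed over 12 concentrations for 24 h, 0.3% DMSO final, before PFA fixation.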

T1 sequence (P10275 whole entry T878A): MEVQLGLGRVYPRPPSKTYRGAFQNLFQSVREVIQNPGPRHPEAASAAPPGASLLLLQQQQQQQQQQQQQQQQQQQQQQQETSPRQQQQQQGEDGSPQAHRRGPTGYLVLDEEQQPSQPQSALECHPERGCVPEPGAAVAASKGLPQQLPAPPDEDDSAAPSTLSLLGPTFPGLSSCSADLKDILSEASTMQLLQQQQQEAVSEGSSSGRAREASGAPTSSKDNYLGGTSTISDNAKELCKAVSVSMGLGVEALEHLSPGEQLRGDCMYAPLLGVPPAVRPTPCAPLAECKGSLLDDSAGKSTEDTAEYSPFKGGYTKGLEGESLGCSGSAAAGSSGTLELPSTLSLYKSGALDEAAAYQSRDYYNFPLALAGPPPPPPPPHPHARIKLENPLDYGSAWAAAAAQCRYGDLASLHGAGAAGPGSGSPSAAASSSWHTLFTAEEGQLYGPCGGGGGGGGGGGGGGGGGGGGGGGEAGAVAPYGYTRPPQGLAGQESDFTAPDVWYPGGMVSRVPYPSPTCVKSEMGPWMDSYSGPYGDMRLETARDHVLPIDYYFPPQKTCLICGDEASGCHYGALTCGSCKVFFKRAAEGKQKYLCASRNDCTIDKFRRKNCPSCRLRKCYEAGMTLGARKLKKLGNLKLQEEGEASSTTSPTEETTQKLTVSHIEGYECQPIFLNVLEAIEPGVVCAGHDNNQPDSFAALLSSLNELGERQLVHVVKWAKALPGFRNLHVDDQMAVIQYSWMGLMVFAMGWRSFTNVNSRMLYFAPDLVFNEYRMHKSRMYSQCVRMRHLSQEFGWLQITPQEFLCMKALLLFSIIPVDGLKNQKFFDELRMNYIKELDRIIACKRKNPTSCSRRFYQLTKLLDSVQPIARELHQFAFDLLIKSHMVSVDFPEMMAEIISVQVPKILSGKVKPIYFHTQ
T1 sequence (Q96SW2 whole entry partner): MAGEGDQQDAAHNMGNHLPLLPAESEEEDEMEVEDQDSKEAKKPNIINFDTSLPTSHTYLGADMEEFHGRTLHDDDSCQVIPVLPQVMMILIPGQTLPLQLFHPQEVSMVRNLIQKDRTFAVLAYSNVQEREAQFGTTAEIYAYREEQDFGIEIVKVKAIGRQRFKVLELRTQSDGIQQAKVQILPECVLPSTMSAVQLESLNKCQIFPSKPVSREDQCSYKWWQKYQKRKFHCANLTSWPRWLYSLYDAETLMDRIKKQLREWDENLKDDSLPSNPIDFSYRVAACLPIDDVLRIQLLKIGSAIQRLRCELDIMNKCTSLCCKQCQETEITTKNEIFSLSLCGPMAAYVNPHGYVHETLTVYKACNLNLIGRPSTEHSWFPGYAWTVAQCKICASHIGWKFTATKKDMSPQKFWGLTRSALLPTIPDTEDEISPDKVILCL
T2 sequence (P10275 whole entry L702H/T878A): as the sequence (P10275 whole entry T878A) above, with L702H counted along it
T2 sequence (Q96SW2 whole entry partner): as the sequence (Q96SW2 whole entry partner) above

Row | DC50 [1] [nM] | Dmax [1] [%] | DC50 [2] [nM] | Dmax [2] [%] | SMILES
1 | 7 | 84 | 7 | 94 | Cn1c(=O)n(C2CCC(=O)NC2=O)c2cccc(CN3CCN(CC4CCN(c5ccc(C6CCN(c7ccc(F)c8c(C#N)c[nH]c78)CC6)cc5)CC4)CC3)c21 (stereo not shown) [Example 71, 7-[4-(4-{4-[(4-{[1-(2,6-Dioxopiperidin-3-yl)-3-methyl-2-oxo-2,3-dihydro-1H-benzimidazol-4-yl]methyl}piperazin-1-yl)methyl]piperidin-1-yl}phenyl)piperidin-1-yl]-4-fluoro-1H-indole-3-carbonitrile]
2 | 9 | 98 | 40 | 70 | N#Cc1n[nH]c2c(N3CCC(c4ccc(N5CCC(CN6CCN(c7ccc8c(c7)CN(C7CCC(=O)NC7=O)C8=O)CC6)CC5)cc4)CC3)ccc(F)c12 (stereo not shown) [Example 145, 7-(4-{4-[4-({4-[2-(2,6-Dioxopiperidin-3-yl)-1-oxo-2,3-dihydro-1H-isoindol-5-yl]piperazin-1-yl}methyl)piperidin-1-yl]phenyl}piperidin-1-yl)-4-fluoro-1H-indazole-3-carbonitrile]
3 | 18 | 92 | 38 | 104 | N#Cc1n[nH]c2c(N3CCC[C@@H](c4ccc(N5CCC(CN6Cc7cc8c(cc7C6)C(=O)N(C6CCC(=O)NC6=O)C8=O)CC5)cc4)C3)ccc(Cl)c12 (stereo partly drawn) [Example 76, 4-Chloro-7-{(3S)-3-[4-(4-{[6-(2,6-dioxopiperidin-3-yl)-5,7-dioxo-3,5,6,7-tetrahydropyrrolo[3,4-f]isoindol-2(1H)-yl]methyl}piperidin-1-yl)phenyl]piperidin-1-yl}-1H-indazole-3-carbonitrile]
4 | 13 | 96 | 21 | 99 | COc1nc(N2CCN(CCCC3CCN(c4ccc(C5CCN(c6ccc(Cl)c7c(C#N)c[nH]c67)CC5)cc4)CC3)CC2)cc2c1C(=O)N(C1CCC(=O)NC1=O)C2 (stereo not shown) [Example 88, 4-Chloro-7-(4-{4-[4-(3-{4-[2-(2,6-dioxopiperidin-3-yl)-4-methoxy-3-oxo-2,3-dihydro-1H-pyrrolo[3,4-c]pyridin-6-yl]piperazin-1-yl}propyl)piperidin-1-yl]phenyl}piperidin-1-yl)-1H-indole-3-carbonitrile]
5 | 8 | 92 | 7 | 103 | N#Cc1c[nH]c2c(N3CCC[C@H](c4ccc(N5CCC(CN6CCN(c7ccc8c(c7)CN(C7CCC(=O)NC7=O)C8=O)CC6)CC5)cc4)C3)ccc(Cl)c12 (stereo partly drawn) [Example 21, 4-Chloro-7-[(3R)-3-{4-[4-({4-[2-(2,6-dioxopiperidin-3-yl)-1-oxo-2,3-dihydro-1H-isoindol-5-yl]piperazin-1-yl}methyl)piperidin-1-yl]phenyl}piperidin-1-yl]-1H-indole-3-carbonitrile]
6 | 1 | 106 | 1 | 110 | N#Cc1cc(N2CCC(CN3CCC(n4ccc5c(N6CCC(=O)NC6=O)cccc54)CC3)CC2)ccc1C(=O)NC1CCN(c2ccc(Cl)c3c(C#N)c[nH]c23)CC1 [Example 162, N-[1-(4-Chloro-3-cyano-1H-indol-7-yl)piperidin-4-yl]-2-cyano-4-[4-({4-[4-(2,4-dioxo-1,3-diazinan-1-yl)-1H-indol-1-yl]piperidin-1-yl}methyl)piperidin-1-yl]benzamide]
7 | 17 | 105 | 41 | 94 | N#Cc1c[nH]c2c(N3CCC[C@@H](c4ccc(N5CC6(CCC(CN7CCC(n8ccc9c(N%10CCC(=O)NC%10=O)cccc98)CC7)CC6)C5)cc4)C3)ccc(Cl)c12 [Example 131, 4-Chloro-7-[(3S)-3-{4-[7-({4-[4-(2,4-dioxo-1,3-diazinan-1-yl)-1H-indol-1-yl]piperidin-1-yl}methyl)-2-azaspiro[3.5]nonan-2-yl]phenyl}piperidin-1-yl]-1H-indole-3-carbonitrile]
8 | 90 | 40 | 15 | 83 | COc1nc(N2CCC(CN3CCC(c4ccc(N5CCCC(c6ccc(Cl)c7c(C#N)c[nH]c67)C5)cc4)CC3)CC2)cc2c1C(=O)N(C1CCC(=O)NC1=O)C2 (single isomer, unassigned) [Example 98, 4-Chloro-7-[(3R*)-1-{4-[1-({1-[2-(2,6-dioxopiperidin-3-yl)-4-methoxy-3-oxo-2,3-dihydro-1H-pyrrolo[3,4-c]pyridin-6-yl]piperidin-4-yl}methyl)piperidin-4-yl]phenyl}piperidin-3-yl]-1H-indole-3-carbonitrile]
9 | 33 | 99 | 34 | 103 | N#Cc1c[nH]c2c(N3CCC(c4ccc(N5CCC(CN6CCN(c7ccc8c(c7)C(=O)N(C7CCC(=O)NC7=O)C8=O)CC6)CC5)cc4)CC3)ccc(Cl)c12 (stereo not shown) [Example 55, 4-Chloro-7-(4-{4-[4-({4-[2-(2,6-dioxopiperidin-3-yl)-1,3-dioxo-2,3-dihydro-1H-isoindol-5-yl]piperazin-1-yl}methyl)piperidin-1-yl]phenyl}piperidin-1-yl)-1H-indole-3-carbonitrile]
10 | 6 | 95 | 12 | 97 | N#Cc1c[nH]c2c(N3CCC[C@@H](c4ccc(N5CCC(CN6CCN(c7ccc8c(c7)CN(C7CCC(=O)NC7=O)C8=O)CC6)CC5)cc4)C3)ccc(Cl)c12 (stereo partly drawn) [Example 12, 4-Chloro-7-[(3S)-3-{4-[4-({4-[2-(2,6-dioxopiperidin-3-yl)-1-oxo-2,3-dihydro-1H-isoindol-5-yl]piperazin-1-yl}methyl)piperidin-1-yl]phenyl}piperidin-1-yl]-1H-indole-3-carbonitrile]
11 | 23 | 100 | 10 | 99 | COc1nc(N2CCN(CC3CCN(c4ccc(N5CCCC(c6ccc(Cl)c7c(C#N)c[nH]c67)C5)cc4)CC3)CC2)cc2c1C(=O)N(C1CCC(=O)NC1=O)C2 (single isomer, unassigned) [Example 91, 4-Chloro-7-[(3R*)-1-{4-[4-({4-[2-(2,6-dioxopiperidin-3-yl)-4-methoxy-3-oxo-2,3-dihydro-1H-pyrrolo[3,4-c]pyridin-6-yl]piperazin-1-yl}methyl)piperidin-1-yl]phenyl}piperidin-3-yl]-1H-indole-3-carbonitrile]
12 | 18 | 85 | 17 | 99 | N#Cc1c[nH]c2c(N3CCC(c4ccc(N5CCC(CN6CCN(c7ccc8c(c7)CN(C7CCC(=O)NC7=O)C8=O)CC6)CC5)cc4)CC3)ccc(F)c12 (single isomer, unassigned) [Example 3, 7-(4-{4-[4-({4-[2-(2,6-Dioxopiperidin-3-yl)-1-oxo-2,3-dihydro-1H-isoindol-5-yl]piperazin-1-yl}methyl)piperidin-1-yl]phenyl}piperidin-1-yl)-4-fluoro-1H-indole-3-carbonitrile]

Row | SMILES | DC50 [1] [nM] | Dmax [1] [%] | DC50 [2] [nM] | Dmax [2] [%]
13 | N#Cc1c[nH]c2c(N3CCC(c4ccc(OCCCCN5CCC(n6ccc7c(N8CCC(=O)NC8=O)cccc76)CC5)cc4)CC3)ccc(Cl)c12 [Example 46, 4-Chloro-7-{4-[4-(4-{4-[4-(2,4-dioxo-1,3-diazinan-1-yl)-1H-indol-1-yl]piperidin-1-yl}butoxy)phenyl]piperidin-1-yl}-1H-indole-3-carbonitrile] | 4 | 101 | 12 | 98
